The source of these data is paper PMC9851200, “Multiparameter phenotypic screening for endogenous TFEB and TFE3 translocation identifies novel chemical series modulating lysosome function” (Autophagy, 2022).

The subject of one data set is endogenous TFE3. Description: TFE3 nuclear translocation, immunocytochemistry high-content imaging. The data set is classed as cell-based.
For data set [1], the system named is SH-SY5Y cells.
From the text: The PKIS2 Library was supplied by The Structural Genomics Consortium at the University of North Carolina at Chapel Hill.
The subject of a further data set is endogenous TFEB. Description: TFEB nuclear translocation, immunocytochemistry high-content imaging. In kind it is cell-based.
The subject of data set [2] is SH-SY5Y cells. As to conditions: human.
In data set [3] the test system is SH-SY5Y cells. As to conditions: human. The source holds these as a separate data set.
Method: Total cell lysis with 5 µL 5% Triton-X 100 (Sigma-Aldrich, T8787) is used as a positive control for the assay and toxicity is expressed as a percentage of luminescence under DMSO conditions.
Data set [4] has as its system SH-SY5Y cells. Description: AK (adenylate kinase) release ToxiLight cytotoxicity assay. Also: reference of the scale not given here. As to conditions: PKIS2 primary screening.
The test system of data set [5] is SH-SY5Y cells. Description: Nuclear count from microscopy images (cellular growth and toxicity). Also: reference of the scale not given here. As to conditions: PKIS2 primary screening.
Data set [6] relates to SH-SY5Y cells. Description: Chemotype enrichment analysis of PKIS2 primary screen hit categories. As to conditions: PKIS2 primary screening, hit category.
Setting [7] is: PKIS2 primary screening, DQ Red BSA intensity.
Where [8] appears, read: PKIS2 primary screening, DQ Red BSA spot count.

The structures appear in SMILES notation. Where two headings read alike, the source gives them in different places.
For DQ Intensity in this document: reference of the scale not given here.
For DQ Spot in this document: reference of the scale not given here.

Regarding `O=C(Nc1n[nH]c2nc(-c3ccccc3O)ccc12)C1CC1` [SB-711880], the TFE3 % in the data set with endogenous TFE3 was determined as 12.20%. In addition, in the data set with SH-SY5Y cells [1], the “DQ Intensity” value was 70.14 and the “DQ Spot” value was 92.53. In the data set with endogenous TFEB, this molecule displayed a TFEB % of 4.35%. Further, the “Nuclear Count” value in the data set with SH-SY5Y cells [2] (SH-SY5Y cells, 24 h, 1 µM) was found to be 102.12. Besides, the AK in the data set on SH-SY5Y cells [3] (SH-SY5Y cells, 24 h, 1 µM) came to 88.20.

In turn, `O=C1NC(=O)C(c2ccc(Cl)cc2)=C1Nc1ccc(O)cc1` [UNC10225090A] returned a TFE3 % in the data set on endogenous TFE3 of 11.41%. Further, in the data set with SH-SY5Y cells [1], the “DQ Intensity” value was determined as 92.30 and the “DQ Spot” value is 94.51. In the data set with endogenous TFEB, this molecule had a TFEB % of 11.08%. In the data set with SH-SY5Y cells [2] (SH-SY5Y cells, 24 h, 1 µM), the “Nuclear Count” value amounted to 99.00. In the data set on SH-SY5Y cells [3] (SH-SY5Y cells, 24 h, 1 µM), this molecule yielded an AK of 134.26.

`CCCCc1nn2ncccc2c1-c1ccnc(Nc2ccc(N3CCN(C)CC3)cc2)n1` [UNC10225453A] gave a TFE3 % in the data set on endogenous TFE3 (PKIS2 primary screening) of 20.14%. Further, in the data set with SH-SY5Y cells [1] (PKIS2 primary screening), the “DQ Intensity” value was 158.78 and the “DQ Spot” value was determined as 101.42. In the data set on endogenous TFEB (PKIS2 primary screening), the TFEB % was determined as 12.73%. Besides, in the data set with SH-SY5Y cells [4], the AK was 108.81. For the same molecule, the “Nuclear Count” value in the data set with SH-SY5Y cells [2] is 74.87.

On to `O=c1cc(N2CCOCC2)nc2n(Cc3cccc(Cl)c3Cl)ccn12` [UNC10225167A], for which, in the data set with endogenous TFE3 (PKIS2 primary screening), the TFE3 % is 15.96%. Besides, in the data set with SH-SY5Y cells [1] (PKIS2 primary screening), the “DQ Intensity” value came to 91.40 and the “DQ Spot” value came out at 112.20. For the same molecule, the TFEB % with endogenous TFEB (PKIS2 primary screening) is reported as 3.69%. In addition, the “Nuclear Count” value with SH-SY5Y cells [5] came to 101.24. Further, the AK with SH-SY5Y cells [3] was determined as 151.05.

`CC(C)(CN)c1nc(-c2ccc(Cl)c(O)c2)c(-c2ccncc2)[nH]1.O=C(O)C(F)(F)F` [UNC10225206B]: the TFE3 % in the data set with endogenous TFE3 (PKIS2 primary screening) came to 3.59%. In addition, in the data set on SH-SY5Y cells [1] (setting [7]), the “DQ Intensity” value is on record as 150.27. In addition, the “DQ Spot” value in the data set on SH-SY5Y cells [1] (setting [8]) is given as 119.19. In the data set on endogenous TFEB (PKIS2 primary screening), this molecule yielded a TFEB % of 5.00%. In the data set with SH-SY5Y cells [4], this molecule registered an AK of 116.08. Moreover, the “Nuclear Count” value in the data set with SH-SY5Y cells [2] amounted to 109.20. Further, the Outcome entry in the data set on SH-SY5Y cells [6] is reported as “DQ Only”.

`Cl.c1ccc(Oc2ccc(Nc3ccnc4cc(-c5ccc(CN6CCNCC6)o5)ccc34)cc2)nc1` [UNC10225130B] gave a TFE3 % in the data set on endogenous TFE3 (PKIS2 primary screening) of 38.53%. Besides, the “DQ Intensity” value in the data set on SH-SY5Y cells [1] (setting [7]) amounted to 87.94. In addition, the “DQ Spot” value in the data set with SH-SY5Y cells [1] (setting [8]) worked out at 55.20. For the same molecule, in the data set with endogenous TFEB (PKIS2 primary screening), the TFEB % is given as 17.19%. The molecule further came in with an AK in the data set with SH-SY5Y cells [4] of 101.15. For the same molecule, the “Nuclear Count” value in the data set with SH-SY5Y cells [5] is listed as 88.02. Besides, the Outcome result with SH-SY5Y cells [6] is reported as “LYSO TOXIC”.

Consider `Cl.Cn1ccc(-c2cccc(Nc3ccnc4cc(-c5nccs5)ccc34)c2)n1` [UNC10225141A], for which, in the data set with endogenous TFE3 (PKIS2 primary screening), the TFE3 % is on record as 26.05%. In addition, in the data set on SH-SY5Y cells [1] (setting [7]), the “DQ Intensity” value is given as 161.91. In addition, the “DQ Spot” value with SH-SY5Y cells [1] (setting [8]) is on record as 66.27. Moreover, the TFEB % in the data set with endogenous TFEB (PKIS2 primary screening) was determined as 12.07%. Moreover, the AK with SH-SY5Y cells [4] is 174.83. The “Nuclear Count” value with SH-SY5Y cells [5] is 43.03. The Outcome result in the data set on SH-SY5Y cells [6] was “TOXIC”.

Molecule `Fc1cc(Cl)ccc1Nc1ccnc2cc(-c3ccc(CN4CCSCC4)o3)ccc12` [UNC10225290A] returned a TFE3 % with endogenous TFE3 (PKIS2 primary screening) of 15.63%. In addition, in the data set with SH-SY5Y cells [1] (setting [7]), the “DQ Intensity” value is reported as 59.38. The “DQ Spot” value in the data set with SH-SY5Y cells [1] (setting [8]) is 53.95. The TFEB % in the data set on endogenous TFEB (PKIS2 primary screening) came to 9.12%. The molecule further displayed an AK in the data set on SH-SY5Y cells [4] of 104.94. Further, the “Nuclear Count” value in the data set with SH-SY5Y cells [5] was found to be 127.72. The Outcome result in the data set with SH-SY5Y cells [6] was “LYSO TOXIC”.

`Cl.Cl.NC[C@H](CC1CCCCC1)NC(=O)c1ccc(-c2ccnc3[nH]ccc23)s1` [UNC10225041A]: the TFE3 % with endogenous TFE3 (PKIS2 primary screening) is 16.73%. For the same molecule, in the data set on SH-SY5Y cells [1] (setting [7]), the “DQ Intensity” value is on record as 229.52. Further, in the data set with SH-SY5Y cells [1] (setting [8]), the “DQ Spot” value is listed as 72.59. The molecule also registered a TFEB % in the data set with endogenous TFEB (PKIS2 primary screening) of 14.98%. In addition, in the data set on SH-SY5Y cells [4], the AK came to 135.71. In addition, the “Nuclear Count” value in the data set with SH-SY5Y cells [5] worked out at 83.64. Moreover, the Outcome entry in the data set on SH-SY5Y cells [6] is “TFEB + DQ Int”.

For `Cc1cccc2c(-c3ccncc3)c(-c3ccc(F)cc3)nn12.Cl` [UNC10225316A], in the data set with endogenous TFE3 (PKIS2 primary screening), the TFE3 % is 21.03%. For the same molecule, the “DQ Intensity” value in the data set with SH-SY5Y cells [1] (setting [7]) amounted to 71.88. Also, in the data set with SH-SY5Y cells [1] (setting [8]), the “DQ Spot” value is reported as 91.98. The same molecule gave a TFEB % with endogenous TFEB (PKIS2 primary screening) of 5.61%. The same molecule returned an AK with SH-SY5Y cells [4] of 93.04. Besides, in the data set with SH-SY5Y cells [5], the “Nuclear Count” value stood at 85.13. In the data set on SH-SY5Y cells [6], the Outcome entry is on record as “TFE3”.

In the data set on endogenous TFE3 (PKIS2 primary screening), `Cl.Cl.NCC(C(=O)Nc1cc(Br)c(-c2ccnc3[nH]ccc23)s1)c1ccccc1` (stereo not drawn) [UNC10225027A] registered a TFE3 % of 26.86%. Besides, in the data set on SH-SY5Y cells [1] (setting [7]), the “DQ Intensity” value is 115.17. In addition, in the data set on SH-SY5Y cells [1] (setting [8]), the “DQ Spot” value is recorded as 95.94. Further, the TFEB % in the data set on endogenous TFEB (PKIS2 primary screening) is given as 6.97%. The AK with SH-SY5Y cells [4] was 80.33. For the same molecule, the “Nuclear Count” value with SH-SY5Y cells [5] is 108.23. Also, in the data set with SH-SY5Y cells [6], the Outcome result is “TFE3”.

As to `CC(C)(CN)c1nc(-c2ccc(Cl)c(O)c2)c(-c2ccncc2)[nH]1.O=C(O)C(F)(F)F` [UNC10225206A], the TFE3 % in the data set on endogenous TFE3 (PKIS2 primary screening) worked out at 7.79%. Further, the “DQ Intensity” value in the data set on SH-SY5Y cells [1] (setting [7]) is 164.60. Further, the “DQ Spot” value with SH-SY5Y cells [1] (setting [8]) stood at 127.42. In the data set on endogenous TFEB (PKIS2 primary screening), this molecule registered a TFEB % of 8.68%. The AK with SH-SY5Y cells [4] was determined as 94.20. Moreover, in the data set with SH-SY5Y cells [2], the “Nuclear Count” value turned out to be 76.70. The Outcome result with SH-SY5Y cells [6] was “DQ Only”.

For the molecule `CCNCC(Cc1ccccc1)NC(=O)c1cc(Br)c(-c2ccnc3[nH]ccc23)s1.Cl.Cl` (stereo not drawn) [UNC10225436A], the TFE3 % with endogenous TFE3 (PKIS2 primary screening) amounted to 35.73%. For the same molecule, the “DQ Intensity” value with SH-SY5Y cells [1] (setting [7]) was 185.61. Also, the “DQ Spot” value in the data set on SH-SY5Y cells [1] (setting [8]) is on record as 102.66. The molecule also came in with a TFEB % with endogenous TFEB (PKIS2 primary screening) of 20.72%. Besides, the AK in the data set with SH-SY5Y cells [4] worked out at 108.80. Moreover, the “Nuclear Count” value in the data set on SH-SY5Y cells [5] was 80.17. Besides, in the data set on SH-SY5Y cells [6], the Outcome entry is on record as “DQ / TFEB/TFE3”.
